This is an account of results in patent US20240424083A1 (priority 2023, published 2024).

Holding throughout (type): cell-based, mouse
Experiment [1] has as its system BMDMs. The settings on record: N15m1-infected BMDMs, 24 hpi; zVAD 20 μM, Nec-1 25 μM, VX-765 20 μM. The protocol:
Cell death assays. Cell viability and Caspase 3/7 activity were measured using CellTiter Glo (G7571, Promega) or CaspaseGlo 3/7 (G8091, Promega) respectively, according to the manufacturer's protocol, with modification.
Cell death assays. Cell viability and Caspase 3/7 activity were measured using CellTiter Glo (G7571, Promega) or CaspaseGlo 3/7 (G8091, Promega) respectively, according to the manufacturer's protocol, with modification. Briefly, 3.0×10^5 BMDMs/well wereplated in 24-well plates and infected at an MOI of 0.1 for 1 h in serum-free media. Media was replaced with complete media, or for addition of chemical inhibitors, viral inoculum was replaced with completed BMM media containing indicated concentration of inhibitors. Infected BMDMs were incubated for 24 h at 37° C./5% CO2. BMDMs were washed twice with 1×PBS and lysed with 100 μL Glo reagent/medium mixture (1:1). 50 μL of cell lysate was used for measuring the luminescence signal. Standard deviation and unpaired t test were performed on technical triplicates and data are representative of three independent experiments.

Experiment [2] deals with BMDMs.
Another experiment has as its system 2′5′-OAS/RNaseL system. The settings on record: N15m1-infected BMDMs, 18 hpi; zVAD 20 μM, C16 1 μM. The method, then:
Bioanalyzer RNA analysis. Equal amounts of total RNA purified from BMDMs were analyzed on an Agilent 2100 Bioanalyzer using RNA Nano LabChips.

Peptide text beside a SMILES is read from it. * marks the point of attachment. Cbz = O=C(OCc1ccccc1)*; CH2F = FC*

Consider `COC(=O)C[C@H](NC(=O)[C@H](C)NC(=O)[C@@H](NC(=O)OCc1ccccc1)C(C)C)C(=O)CF` [zVAD] (Cbz-Val-Ala-Asp(OMe)-CH2F), for which, in the experiment on BMDMs [1], the “effect of inhibitor on virus-induced cell death” value is given as “prevented virus-induced cell death”. For the same compound, the “effect of inhibitor on caspase 3/7 activity in N15m1-infected BMDMs” value with BMDMs [2] is listed as “inhibited”. In the experiment on 2′5′-OAS/RNaseL system, the “effect of inhibitor on degradation of host rRNA” value was “not inhibited”.
